In brackets after ≈: the same amount, converted by molar mass.
Experiments:
Yellow fever virus [1] = experiment: Antiviral activity against Yellow fever virus assessed as reduction in cytopathic effect by neutral red uptake assay; format: functional, organism-based
Yellow fever virus [2] = experiment: Antiviral activity against Yellow fever virus; format: functional, organism-based
Yellow fever virus [3] = experiment: Antiviral activity against Yellow fever virus African green monkey Vero cells assessed as reduction in cytopathic effect; format: functional, organism-based
Yellow fever virus [4] = experiment: Antiviral activity against Yellow fever virus 17D assessed as reduction in cytopathic effect incubated for 30 mins; format: functional, organism-based; conditions: 0.5 h
Yellow fever virus [5] = experiment: Antiviral activity against Yellow fever virus 17D infected in African green monkey Vero assessed as reduction in cytopathic effect preincubated with compound for 5 mins followed by viral infection and measured at 72 to 120 hrs by neutral red uptake assay; format: functional, organism-based
[6] = Cytotoxicity against African green monkey Vero cells assessed as inhibition of cell growth by neutral red uptake assay; format: toxicity, cell-based, Chlorocebus sabaeus
Yellow fever virus [7] = experiment: Antiviral activity against Yellow fever virus 17D infected in African green monkey Vero assessed as reduction in cytopathic effect preincubated with compound for 5 mins followed by viral infection and measured at 72 to 120 hrs by visual analysis; format: functional, organism-based
[8] = Selectivity index, ratio of IC50 for cytotoxicity against African green monkey Vero cells assessed as inhibition of cell growth by neutral red uptake assay to EC50 for antiviral activity against Yellow fever virus 17D infected in African green monkey Vero assessed as reduction in cytopathic effect; format: toxicity, cell-based; conditions: read-out: Ratio IC50/EC50
[9] = Cytotoxicity against African green monkey Vero cells assessed as inhibition of cell growth by visual analysis; format: toxicity, cell-based, Chlorocebus sabaeus
[10] = Selectivity index, ratio of IC50 for cytotoxicity against African green monkey Vero cells assessed as inhibition of cell growth by visual analysis to EC50 for antiviral activity against Yellow fever virus 17D infected in African green monkey Vero assessed as reduction in cytopathic effect; format: toxicity, cell-based; conditions: read-out: Ratio IC50/EC50
Yellow fever virus [11] = experiment: Antiviral activity against Yellow fever virus 17D infected in African green monkey Vero assessed as reduction in virus yield preincubated with compound for 5 mins followed by viral infection and measured at 72 to 120 hrs; format: functional; conditions: time 4325-7205 min
Yellow fever virus [12] = experiment: Antiviral activity against Yellow fever virus 17D infected in African green monkey Vero assessed as reduction in cytopathic effect preincubated with compound for 5 mins followed by viral infection and measured at 7 days; format: functional, organism-based
Yellow fever virus [13] = experiment: Antiviral activity against Yellow fever virus 17D infected in African green monkey Vero assessed as reduction in cytopathic effect preincubated with compound for 5 mins followed by viral infection and measured at 72 to 120 hrs; format: functional, organism-based
[14] = Selectivity index, ratio of CC50 for cytotoxicity against African green monkey Vero cells to EC50 for antiviral activity against Yellow fever virus 17D infected in African green monkey Vero assessed as reduction in cytopathic effect; format: toxicity, cell-based; conditions: read-out: Ratio CC50/EC50
Yellow fever virus [15] = experiment: Antiviral activity against Yellow fever virus 17D infected in Huh-7 cells assessed as reduction in cytopathic effect; format: functional, organism-based
Yellow fever virus [16] = experiment: Antiviral activity against Yellow fever virus infected in human A549 cells assessed as reduction in virus replication; format: functional, organism-based
[17] = Selectivity index, ratio of CC50 for cytotoxicity against human A549 cells to EC50 for antiviral activity against Yellow fever virus infected in human A549 cells assessed as reduction in virus replication; format: toxicity, cell-based; conditions: read-out: Ratio CC50/EC50
Yellow fever virus [18] = experiment: Antiviral activity against wild typeYellow fever virus infected in human Huh-7 cells assessed as reduction in virus replication; format: functional, organism-based
[19] = Selectivity index, ratio of CC50 for cytotoxicity against human Huh-7 cells to EC50 for antiviral activity against wild typeYellow fever virus infected in human Huh-7 cells assessed as reduction in virus replication; format: toxicity, cell-based; conditions: read-out: Ratio CC50/EC50

SMILES | EC50 (Yellow fever virus [5]) [µg/mL] | IC50 [6] [µg/mL] | selectivity ratio [8] | other results
NC(=O)C1(N2CCCCC2)CCN(C(=O)CSc2nc3ccccc3o2)CC1 | – | – | – | EC50 (Yellow fever virus [1]): 7.4 µM
CCn1c(=O)/c(=C2\Sc3c(F)cccc3N2C)s/c1=C\c1cccc[n+]1C | – | – | – | EC50 (Yellow fever virus [2]): < 1 µM
Nc1c(C(=O)Nc2nnc(-c3ccccc3)s2)sc2nc3c(cc12)CCCCC3 | – | – | – | EC50 (Yellow fever virus [3]): 6.97 µM
C/C(=N\Nc1ccccc1)c1sc(-c2cc(Cl)nc(Oc3ccc(Cl)cc3)c2)nc1C | – | – | – | EC50 (Yellow fever virus [4]): 1.6 µM
O=c1[nH]c(Nc2ccc(F)cc2)nnc1Cc1ccc(F)cc1 | > 100 | > 100 | – | –
Cc1ccc(Cc2nnc(Nc3ccccc3F)[nH]c2=O)cc1 | 1 (≈ 3.22 µM) | > 100 | > 19 | EC50 (Yellow fever virus [7]): 5 µg/mL (≈ 16.1 µM); IC50 [9]: 43 µg/mL (≈ 139 µM); selectivity ratio [10]: 8.6
COc1ccccc1Nc1nnc(Cc2ccc(C)cc2)c(=O)[nH]1 | 0.94 (≈ 2.92 µM) | > 100 | > 31 | EC50 (Yellow fever virus [7]): 4.2 µg/mL (≈ 13 µM); EC90 (Yellow fever virus [11]): 50 µg/mL (≈ 155 µM); EC50 (Yellow fever virus [12]): 4.2 µg/mL (≈ 13 µM); IC50 [9]: 27 µg/mL (≈ 83.8 µM); selectivity ratio [10]: 6.4; EC50 (Yellow fever virus [13]): 13 µM; selectivity ratio [14]: > 36
COc1ccc(OC)c(Nc2nnc(Cc3ccc(C)cc3)c(=O)[nH]2)c1 | 2.9 (≈ 8.23 µM) | 16 (≈ 45.4 µM) | 5.5 | –
CC(C)c1ccc(Cc2nnc(NCCN3CCOCC3)[nH]c2=O)cc1 | > 100 | > 100 | – | –
CCOc1ccc(Nc2nnc(Cc3ccc(C)cc3)c(=O)[nH]2)cc1 | > 100 | > 100 | – | –
CCOC(=O)c1ccc(Nc2nnc(Cc3ccc(C)cc3)c(=O)[nH]2)cc1 | > 100 | > 100 | – | –
Cc1ccc(Cc2nnc(Nc3ccc(F)cc3)[nH]c2=O)cc1 | 1 (≈ 3.22 µM) | > 100 | > 14 | EC50 (Yellow fever virus [7]): 10 µg/mL (≈ 32.2 µM); IC50 [9]: 51 µg/mL (≈ 164 µM); selectivity ratio [10]: 5.1
Cc1ccc(Cc2nnc(NC3CCCCC3)[nH]c2=O)cc1 | 30 (≈ 101 µM) | > 100 | > 3.3 | –
COc1ccc(Nc2nnc(Cc3ccc(C(C)C)cc3)c(=O)[nH]2)cc1OC | > 38 | > 38 | – | –
CCOc1ccccc1Nc1nnc(Cc2ccc(C)cc2)c(=O)[nH]1 | > 100 | > 100 | – | –
Cc1ccc(Cc2nnc(Nc3cccc(F)c3)[nH]c2=O)cc1 | 1 (≈ 3.22 µM) | > 100 | > 14 | EC50 (Yellow fever virus [7]): 6.2 µg/mL (≈ 20 µM); EC90 (Yellow fever virus [11]): 65 µg/mL (≈ 209 µM); EC50 (Yellow fever virus [12]): 6.2 µg/mL (≈ 20 µM); IC50 [9]: 51 µg/mL (≈ 164 µM); selectivity ratio [10]: 8.2; EC50 (Yellow fever virus [13]): 20 µM; selectivity ratio [14]: > 53
Cc1cccc(Nc2nnc(Cc3ccc(F)cc3)c(=O)[nH]2)c1C | > 100 | > 100 | – | –

SMILES | EC50 (Yellow fever virus [5]) [µg/mL] | IC50 [6] [µg/mL] | selectivity ratio [8] | other results
Cc1ccc(Cc2nn3c(=O)c4ccccc4nc3[nH]c2=O)cc1 | > 100 | > 100 | – | –
CC[C@H](C)[C@@H]1N=C(c2ccccc2)c2cc(Cl)ccc2N(CC(=O)O)C1=O | – | – | – | EC50 (Yellow fever virus [15]): 0.21 µM
Cc1ccc(Cc2nnc(Nc3ccccc3C)[nH]c2=O)cc1 | 18 (≈ 58.8 µM) | > 100 | > 5.6 | –
CC(=O)Nc1ccc(Nc2nnc(Cc3ccc(C)cc3)c(=O)[nH]2)cc1 | > 100 | > 100 | – | –
C[C@@H]1[C@@H](CO)O[C@@H](n2ccc(N)nc2=O)[C@]1(C)O | – | – | – | EC50 (Yellow fever virus [2]): 0.7 µM
COc1ccc(Nc2nnc(Cc3ccc(C)cc3)c(=O)[nH]2)cc1OC | 11 (≈ 31.2 µM) | 18 (≈ 51.1 µM) | 1.6 | –
Cc1ccc(Cc2nnc(Nc3cccc(C)c3)[nH]c2=O)cc1 | 0.48 (≈ 1.57 µM) | > 100 | > 29 | EC50 (Yellow fever virus [7]): 10 µg/mL (≈ 32.6 µM); EC90 (Yellow fever virus [11]): 158 µg/mL (≈ 516 µM); EC50 (Yellow fever virus [12]): 10 µg/mL (≈ 32.6 µM); IC50 [9]: 58 µg/mL (≈ 189 µM); EC50 (Yellow fever virus [13]): 33 µM; selectivity ratio [14]: 23
Cc1ccc(Cc2nnc(Nc3cc(C)ccc3C)[nH]c2=O)cc1 | 23 (≈ 71.8 µM) | > 100 | > 4.3 | –
Cc1ccc(Cc2nnc(Nc3ccccc3)[nH]c2=O)cc1 | 6.2 (≈ 21.2 µM) | > 100 | > 7.1 | EC50 (Yellow fever virus [7]): 7.4 µg/mL (≈ 25.3 µM); IC50 [9]: 16 µg/mL (≈ 54.7 µM); selectivity ratio [10]: 2.2
COC(=O)c1ccc(Nc2nnc(Cc3ccc(C)cc3)c(=O)[nH]2)cc1 | > 100 | > 100 | – | –
COc1ccc(Nc2nnc(Cc3ccc(C)cc3)c(=O)[nH]2)c(OC)c1 | 1 (≈ 2.84 µM) | > 100 | > 17 | EC50 (Yellow fever virus [7]): 3.5 µg/mL (≈ 9.93 µM); EC90 (Yellow fever virus [11]): 28 µg/mL (≈ 79.5 µM); EC50 (Yellow fever virus [12]): 3.5 µg/mL (≈ 9.93 µM); IC50 [9]: 58 µg/mL (≈ 165 µM); selectivity ratio [10]: 17; EC50 (Yellow fever virus [13]): 9.9 µM; selectivity ratio [14]: 51
O=c1cnn([C@@H]2O[C@H](CO)[C@@H](O)[C@H]2O)c(=O)[nH]1 [6-AZAURIDINE] | – | – | – | EC50 (Yellow fever virus [2]): 46 µM
O=C1OC2(c3ccccc31)c1cc(I)c(O)c(I)c1Oc1c2cc(I)c(O)c1I [ERYTHROSINE] | – | – | – | EC50 (Yellow fever virus [16]): 0.57 µM; selectivity ratio [17]: > 263
NC(=O)c1nc(F)cnc1O [FAVIPIRAVIR] | – | – | – | EC50 (Yellow fever virus [2]): 330 µM
NC(=O)c1ncn([C@@H]2O[C@H](CO)[C@@H](O)[C@H]2O)n1 [RIBAVIRIN] | – | – | – | EC50 (Yellow fever virus [18]): 4.9 µM; selectivity ratio [19]: 58
CC(C)OC(=O)[C@H](C)N[P@](=O)(OC[C@H]1O[C@@H](n2ccc(=O)[nH]c2=O)[C@](C)(F)[C@@H]1O)Oc1ccccc1 [SOFOSBUVIR] | – | – | – | EC50 (Yellow fever virus [18]): 4.2 µM; selectivity ratio [19]: 90

Reference: ChEMBL document CHEMBL5321211, “Synthesis and evaluation of anti-yellow fever virus activity of new 6-aryl-3-R-amino-1,2,4-triazin-5(4H)-ones” (Eur J Med Chem, 2023)
